We go through 9 compounds from patent US4459227A, “Para-hydroxyphenylhydrazines as in situ precursors of iminoquinones and quinones” (Duke University, priority 1981, dated 1984).

Read-outs that look alike come from different tables or passages of the source.

Data set [1] addresses T1, Leucine Aminopeptidase (LAP), type III-CP (Sus scrofa, UniProt P28839).
T1 sequence (P28839 33-519): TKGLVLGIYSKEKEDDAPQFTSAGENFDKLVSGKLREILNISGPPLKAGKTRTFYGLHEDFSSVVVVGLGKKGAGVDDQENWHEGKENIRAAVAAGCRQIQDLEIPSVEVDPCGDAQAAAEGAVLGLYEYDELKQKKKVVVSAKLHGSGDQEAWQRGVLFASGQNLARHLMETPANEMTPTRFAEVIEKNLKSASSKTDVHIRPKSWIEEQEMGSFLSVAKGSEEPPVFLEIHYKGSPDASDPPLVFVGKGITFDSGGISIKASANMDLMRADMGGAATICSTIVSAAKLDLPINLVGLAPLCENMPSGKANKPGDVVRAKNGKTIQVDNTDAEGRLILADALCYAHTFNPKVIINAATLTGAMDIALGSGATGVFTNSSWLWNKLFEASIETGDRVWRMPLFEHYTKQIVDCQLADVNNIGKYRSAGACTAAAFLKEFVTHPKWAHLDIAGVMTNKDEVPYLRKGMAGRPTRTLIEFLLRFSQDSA
As to the kind of experiment: Leucine aminopeptidase in vitro hydrolysis (TLC). To be noted: 1 mg/ml AA-CHP, pH 9.0, up to 12 hours. The format is biochemical. The protocol: Leucine Aminopeptidase (LAP), type III-CP (Sigma) was stored at 0°-4° C. in 0.75M saturated […], 0.1M Tris and 0.005M MgCl2 (pH 8) and contained 210 U/ml. Prior to the hydrolysis experiment, LAP (50λ) was activated by incubating it in 0.025M MnCl2 (0.2 ml), 0.5M Tris.HCl buffer (pH 9.0, 0.2 ml) and demineralized and ultra-filtered H2 O (0.6 ml) for at least 2 hours at 37° C. To each sample test tube was added AA-CHP (1.5 mg) in 0.02M Tris HCl buffer (pH 9.0, 0.5 ml) so that the final concentration was 1 mg/ml AA-CHP. […] They were dried and sprayed with 0.2% Ninhydrin in EtOH and the color was developed at 85° C. for 5 minutes. The in vitro hydrolysis of Leu-CHP by LAP was also concomitantly studied by scanning spectrophotometry at different times after the start of incubation with the enzyme. A blank reference cell containing only enzyme and buffer was used.

The nature of data set [2]: Spectral study of rearrangement/reactions with nucleophiles, reducing and oxidizing agents. The format is physicochemical. How it is done:
In order to characterize the products of hydrolysis of AA-CHP's, the hydrolysis of Leu-CHP by LAP was studied by absorption spectrophotometry. […] This was also true for the new maximum at 350 nm and for a second new "maximum" which appeared as a low, broad "peak" merging with 350 peak and centered at about 400 nm. However, by 22 minutes (not shown) the absorbance at 300 and 400 nm had diminished in intensity while the 350 maximum continued to increase, albeit at a slower rate. At pH 7.0 (FIG. 8B), the absorbance at 300 nm continued to slowly increase in intensity even up to 90 minutes after dissolving CHP-OEt (0.2 mg) in DMSO (0.02 ml) into 0.05M Phosphate buffer (3 ml). Furthermore, a second maximum at 350 nm developed but it remaind smaller in intensity than the 300 nm peak.
Table 2 summarizes the results of several separate experiments involving the reactions of CHP-OEt, CHA-OEt, pIQ-OEt and pBQ (0.5-1.0 mM) with various nucleophiles (lysine, 3-MPA) reducing agents (NaBH4, 3-MPA) and oxidizing agents (NaIO4, O2) in ten-fold molar excess in Tris-HCl buffer (0.05M, pH 9.0).
In these studies, CHP-OEt, CHA-OEt and pBQ* were all pure compounds, thus, their absorption could be unequivocably assigned, pIQ-OEt was generated by the autoxidation of CHA-OEt in solution and its presence was noted by the appearance of one absorbance maximum at 400 nm and the development of a distinct yellow color to a previously clear solution of CHA-OEt. […] On the other hand, there was a dissimilarity between the spectra of CHP-OEt and CHA-OEt. CHA-OEt was oxidized by O2 or NaIO4 to the pIQ-OEt with a λmax =400 nm whereas NaIO4 had no effect on the rate or nature of spectral change that occurred when . . .

Data set [3] in a line: Stability in aqueous media. The format is physicochemical.
Data set [4] in a line: In vivo toxicity (LD50, survival, histology). Further details: species or system mice; key to Histologic Findings: Acute Renal Tubular Necrosis / Histologic Findings: Pulmonary Congestion and Edema: 0: absent; +: mild; ++: moderate; +++: severe. The settings on record: mouse, in vivo, ip, mice; for NOAEL: read-out: non-toxic up to (dose). How it is done:
(§1) Female DBA/2J mice, 8 weeks old, were injected intraperitoneally with test compound solutions (X, XI, XII, XIII, […]) to give a final concentration of 30 mg/ml.
(§2) In those groups receiving both test compound and cysteine, cysteine (1000 mg/kg) was given i.p. both 1 hour prior to and 2 or 3 hours after i.p. injection of the test compound. In Table 3 are the results of these experiments.

For another data set, the system named is Female DBA/2J mice. As to the kind of experiment: In vivo toxicity (LD50, survival, histology). To be noted: for pulmonary congestion and edema (in words): Phe-CHP 600, Leu-CHP 1000, CHP-OEt 550 mg/kg. The arrangement: key to Histologic Findings: Acute Renal Tubular Necrosis / Histologic Findings: Pulmonary Congestion and Edema: 0: absent; +: mild; ++: moderate; +++: severe. How it is done: as §1, §2

A further data set relates to mice. The protocol:
Cysteine hydrochloride was neutralized with 1N NaOH and diluted with PBS so that the final concentration was 30 mg/ml. In those groups that received only the test compounds, a single dose (up to 1000 mg/kg) was given i.p. and any toxic deaths were autopsied and hematoxylin and eosin sections obtained.

Setting [5] is: compound added: 3-MPA, pH 8-9, ten-fold excess.
The mark [6] stands for this setting: compound added: Lysine, pH 8-9, ten-fold excess.

Consider `CC(C)C[C@H](NC(=O)OC(C)(C)C)C(=O)NN(CC(=O)O)c1ccc(O)cc1` [Boc-Leu-CHP], for which, in data set [1], the “cleavage/hydrolysis by LAP” value is reported as “not”.

`CCOC(=O)CNc1ccc(O)cc1` [CHA-OEt, N(p-hydroxyphenyl)glycine ethyl ester, reference compound]: the “Final Maximum (nm)” value in data set [2] (setting [5]) is given as 300 nm. The “Initial Maximum (nm)” value in data set [2] (pH 8-9) came out at 300 nm.

Usually LD50 stands for the dose expected to kill half of the subjects tested. In data set [2] (0.01M Tris buffer pH 9.0, FIG. 8A), `CCOC(=O)CN(N)c1ccc(O)cc1` [CHP-OEt, α-N-(carboxymethyl ethyl ester)-p-hydroxyphenylhydrazine] had an absorption maximum of 300 nm. In data set [2] (0.05M Phosphate buffer pH 7.0, FIG. 8B), this compound yielded a second absorption maximum of 350 nm. For the same compound, the “Final Maximum (nm)” value in data set [2] (setting [5]) came out at 300 nm; in data set [2] (setting [6]), 350 nm; in data set [2] (compound added: NaBH4, pH 8-9, ten-fold excess) it was 300 nm; in data set [2] (compound added: NaIO4, pH 8-9, ten-fold excess) it was 350 nm; in data set [2] (compound added: none, pH 8-9), 350 nm. In addition, the “Final Maximum (nm), appears after NaBH4 has decomposed” value in data set [2] (compound added: NaBH4, pH 8-9) is 350 nm. The “Initial Maximum (nm)” value in data set [2] (pH 8-9) is listed as 300 nm. The “stability in aqueous media” value was “obvious instability” in data set [3] and “decomposes rapidly” in data set [3] (listed as IVa). In data set [4], the LD50 was in the range of 400 to 550 mg/kg. Also, the survivors/total in the data set with Female DBA/2J mice (400 mg/kg i.p.) is given as 3/3; in the data set on Female DBA/2J mice (550 mg/kg i.p. in 7% DMSO), 0/4. Besides, the deaths/total result in the data set on Female DBA/2J mice (550 mg/kg i.p. in 7% DMSO) is “four of four”. For the same compound, the “time of death after treatment” value in the data set on Female DBA/2J mice (550 mg/kg i.p. in 7% DMSO) is at most 8 h. Besides, the “Histologic Findings: Acute Renal Tubular Necrosis” value with Female DBA/2J mice (i.p., mice) was found to be 0. Further, in the data set on Female DBA/2J mice (i.p., mice), the “Histologic Findings: Pulmonary Congestion and Edema” value is “+++”. The “microscopic examination of the heart” value in the data set with Female DBA/2J mice (i.p., mice) is reported as “no evidence of a toxic insult”. Also, the “pulmonary congestion and edema (in words)” value with Female DBA/2J mice (i.p.) is on record as “moderate to severe”.

In the case of `NCCCC[C@H](N)C(=O)NN(CC(=O)O)c1ccc(O)cc1` [Lys-CHP], the “cleavage/hydrolysis by LAP” value in data set [1] was “not”. In data set [4], the 50% lethal dose (LD50) is over 1000 mg/kg. Besides, the NOAEL in data set [4] was at least 1000 mg/kg. Also, the survivors/total in the data set with Female DBA/2J mice (600 mg/kg i.p.) is reported as 5/5; in the data set with Female DBA/2J mice (1000 mg/kg i.p.) it was 6/6.

Turning to `N[C@@H](Cc1ccccc1)C(=O)NN(CC(=O)O)c1ccc(O)cc1` [Phe-CHP], the “cleavage/hydrolysis by LAP” value in data set [1] is given as “able to cleave”. This compound also displayed a 50% lethal dose (LD50) in data set [4] of 400 mg/kg. Besides, the survivors/total was 3/5 with Female DBA/2J mice (400 mg/kg i.p.) and 1/7 in the data set on Female DBA/2J mice (600 mg/kg i.p.). Besides, the “Histologic Findings: Acute Renal Tubular Necrosis” value with Female DBA/2J mice (i.p., mice) is given as “+++”. The “acute renal tubular necrosis (in words)” value with Female DBA/2J mice (i.p., mice) is recorded as “severe acute renal tubular coagulative necrosis”. For the same compound, the relative toxicity entry in the data set on Female DBA/2J mice (i.p., mice) is recorded as “most toxic”. Further, in the data set on Female DBA/2J mice (i.p.), the “pulmonary congestion and edema (in words)” value is “minimal”. The deaths/total is on record as 6 of 7 in the data set on mice (600 mg/kg i.p., no cysteine); 6/7 with mice (600 mg/kg i.p., no cysteine, listed as Phe--CHP); “none” with mice (Phe-CHP 600 mg/kg i.p. with cysteine 1000 mg/kg before and after); 0/3 with mice (Phe-CHP 600 mg/kg i.p. with cysteine 1000 mg/kg before and after, listed as Phe--CHP). This compound had an LD100 in the data set with mice (i.p., mice) of 600 mg/kg. For the same compound, the “Time of Death” value with mice (no cysteine, Leu-CHP 1000 mg/kg, Phe-CHP 600 mg/kg i.p.) lay in the range of 36 to 44 h.

On to `N[C@@H](CCC(=O)O)C(=O)NN(CC(=O)O)c1ccc(O)cc1` [Glu-CHP], for which the “cleavage/hydrolysis by LAP” value in data set [1] is reported as “not”. Besides, in data set [4], the median lethal dose (LD50) was over 1000 mg/kg and the NOAEL is at least 1000 mg/kg. In addition, the survivors/total in the data set on Female DBA/2J mice (600 mg/kg i.p.) was 5/5. In addition, in the data set on Female DBA/2J mice (1000 mg/kg i.p.), the survivors/total was 6/6.

As for `CCOC(=O)CN(NC(=O)[C@@H](N)CC(C)C)c1ccc(O)cc1` [Leu-CHP-OEt, β-N-(L-leucyl)-α-N-(carboxymethyl ethyl ester)-p-hydroxyphenylhydrazine], the “cleavage/hydrolysis by LAP” value in data set [1] is “able to cleave”.

As for `C[C@H](N)C(=O)NN(CC(=O)O)c1ccc(O)cc1` [Ala-CHP], the “cleavage/hydrolysis by LAP” value in data set [1] is recorded as “able to cleave”. For the same compound, in data set [4], the LD50 was over 1000 mg/kg and the NOAEL is at least 1000 mg/kg. Also, the survivors/total in the data set with Female DBA/2J mice (600 mg/kg i.p.) is 5/5. In addition, the survivors/total in the data set with Female DBA/2J mice (1000 mg/kg i.p.) was 6/6.

`CCOC(=O)CN=C1C=CC(=O)C=C1` [pIQ-OEt, reference compound]: in data set [2] (setting [6]), the “Final Maximum (nm)” value was determined as 300 nm. The “λmax of pIQ-OEt formed by oxidation of CHA-OEt” value in data set [2] (oxidation by O2 or NaIO4) turned out to be 400 nm.
